Key:
[1] = tested on: P388; experiment: Cytotoxicity against mouse P388 cells incubated for 72 hrs by alamar blue assay; format: functional, cell-based; details: P388, 72 h
[2] = tested on: HT-29; experiment: Cytotoxicity against human HT-29 cells incubated for 72 hrs by alamar blue assay; format: functional, cell-based; details: HT-29, 72 h
[3] = tested on: MOLT-4; experiment: Cytotoxicity against human MOLT4 cells incubated for 72 hrs by alamar blue assay; format: functional, cell-based; details: MOLT-4, 72 h
[4] = tested on: K562; experiment: Cytotoxicity against human K562 cells incubated for 72 hrs by alamar blue assay; format: functional, cell-based; details: K562, 72 h
[5] = tested on: Neutrophil; experiment: Antiinflammatory activity in human neutrophils assessed as inhibition of fMLP/CB-induced superoxide anion generation by measuring superoxide […] dismutase inhibitable reduction of ferricytochrome c at 10 uM incubated for 5 mins; format: functional
[6] = tested on: Neutrophil; experiment: Antiinflammatory activity in human neutrophils assessed as inhibition of fMLP/CB-induced superoxide anion generation by measuring superoxide […] dismutase inhibitable reduction of ferricytochrome c incubated for 5 mins; format: functional, cell-based
[7] = tested on: Neutrophil; experiment: Antiinflammatory activity in human neutrophils assessed as inhibition of fMLP/CB-induced elastase release incubated for 5 mins in presence of MeO-Suc-Ala-Ala-Pro-Val-p-nitroanilide; format: functional, cell-based
[8] = tested on: Neutrophil; experiment: Antiinflammatory activity in human neutrophils assessed as inhibition of fMLP/CB-induced elastase release at 10 uM incubated for 5 mins in presence of MeO-Suc-Ala-Ala-Pro-Val-p-nitroanilide; format: functional

Compound	IC50 [1]	IC50 [2]	IC50 [3]	IC50 [4]	inhibition at 10 µM [5]	IC50 [6]	IC50 [7]	inhibition at 10 µM [8]
C[C@H]1[C@H]2[C@H](C[C@H]3[C@@H]4CCC5=CC(=O)C=C[C@]5(C)[C@H]4CC[C@]23C)O[C@@]2(OC(=O)[C@@H](C)[C@H]2C)[C@H]1O	18.3 µM	20.5 µM	13.7 µM	17.4 µM	34.3%	> 10 µM	> 10 µM	11.4%
C[C@@H]1[C@H]([C@H]2OC(=O)[C@@H](C)[C@H]2C)O[C@H]2C[C@H]3[C@@H]4CCC5=CC(=O)C=C[C@]5(C)[C@H]4CC[C@]3(C)[C@@H]12	29.9 µM	18.7 µM	12.1 µM	8.7 µM	87.7%	3.5 µM	1.4 µM	114%
C[C@@H]([C@H]1CC[C@H]2[C@@H]3CCC4=CC(=O)C=C[C@]4(C)[C@H]3CC[C@]12C)[C@H]1C[C@H](C)[C@@H](C)C(=O)O1	> 40 µM	> 40 µM	> 40 µM	> 40 µM	26.3%	> 10 µM	> 10 µM	25%
C[C@H]1[C@H]([C@@]2(O)O[C@H]3C[C@H]4[C@@H]5CCC6=CC(=O)C=C[C@]6(C)[C@H]5CC[C@]4(C)[C@H]3[C@@H]2C)OC(=O)[C@@H]1C	18.7 µM	11.2 µM	17.2 µM	12.6 µM	32.1%	> 10 µM	> 10 µM	9.5%
C[C@H]1[C@H]2[C@H](C[C@H]3[C@@H]4CCC5=CC(=O)C=C[C@]5(C)[C@H]4CC[C@]23C)O[C@]2(OC(=O)[C@H](C)[C@H]2C)[C@H]1O	39.8 µM	24.4 µM	28.6 µM	29.7 µM	14.4%	> 10 µM	> 10 µM	32.4%
C[C@@H]1C(=O)[C@@]2(OC(=O)[C@H](C)[C@H]2C)O[C@H]2C[C@H]3[C@@H]4CCC5=CC(=O)C=C[C@]5(C)[C@H]4CC[C@]3(C)[C@H]21	> 40 µM	> 40 µM	> 40 µM	> 40 µM	17.3%	> 10 µM	> 10 µM	12.5%
O=c1[nH]cc(F)c(=O)[nH]1 [FLUOROURACIL]	5.8 µM	7.2 µM	6.2 µM	30.5 µM	–	–	–	–
CC[C@H](Nc1ncnc2[nH]cnc12)c1nc2cccc(F)c2c(=O)n1-c1ccccc1 [IDELALISIB]	–	–	–	–	103%	0.07 µM	0.3 µM	99.6%

— ChEMBL document CHEMBL4052701, “Bioactive new withanolides from the cultured soft coral Sinularia brassica” (Bioorg Med Chem Lett, 2017)
